Structures can show the parent of a compound that is named as a salt.
Key:
[1] = Stability of 100 mg tablet formulation with different propyl gallate levels; type: physicochemical; details: for Total Degradation: 100 mg tablet, 40° C./75% RH
Experimental: Next, the stability of 100 mg tablet formulation comprising CYT-0387 Form II was examined in the presence of 0%, 0.2%, 0.5%, or 1.0% propyl gallate at 25° C./60% RH (relative humidity) or 40° C./75% RH for up to 6 months. The degradation profiles were determined at month 0, 1, 3, and 6.

[2] = Effects of antioxidants on degradation of CYT-0387 Form II in aqueous solution (HPLC); type: physicochemical
Experimental: This was determined from the study that investigated the potential effects of different antioxidants in inhibiting or preventing degradation of CYT-0387 dihydrochloride monohydrate Form II. In the initial study, five antioxidants of three different mechanisms of action were examined: free radical scavenger antioxidants (propyl gallate, butylated hydroxyanisole (BHA), and butylated hydroxytoluene (BHT)), a sacrificial reductant (ascorbic acid), and an oxygen scavenger (sodium metabisulfite).
Aqueous solutions containing 20 μg/mL of CYT-0387 dihydrochlorid monohydrate Form II in 70% (v/v) 50 mM acetate buffer (pH 4.0) and 30% (v/v) methanol were incubated in absence (which was used as control) and presence of 0.1% (w/v) antioxidant at 60° C. for up to 7 days. At Day 0, 5 and 7, the solution was analyzed using a reverse-phase HPLC with a Zorbax SB-C8 column ([…].). […] While total degradation products could not be determined for 0.1% ascorbic acid due to interference, the main oxidative degradation products were not observed (data not shown).
In additional studies, the effects of the lower concentrations of 0.01% and 0.001% (w/v) of propyl gallate, BHA, and ascorbic acid on the stability of CYT-0387 were examined under the same condition. […] Moreover, at 0.001% (w/v) antioxidant level, the presence of propyl gallate decreased or inhibited the degradation of CYT-0387 relative to BHA and ascorbic acid (Table 7).

[3] = tested on: hepcidin production in HepG2 cells; assay: BMP6-mediated hepcidin induction in HepG2 cells (qRT-PCR); type: cell-based; details: for hepcidin fold-change induction (normalized percentage): HepG2, 10 ng/mL BMP6 6 hours, 100% = vehicle
From the text: This study characterized the effect of CYT-0387 on hepcidin production in HepG2 cells, a hepatocellular carcinoma cell line. Bone morphogenic proteins (BMPs) is shown to be involved in the transcriptional induction of hepcidin in hepatocytes by facilitating the association of constitutively active Type-II BMP receptor kinases (BMPR-kinase) with Type-I BMPR-kinase (Andriopoulos, et al. Nat Genet, 2009. 41(4): p482-7; Zhao, et al., J Clin Invest, 2013. 123(6): p2337-43).
HepG2 cells were preincubated for 2 hours with CYT-0387 (ranging from 0 μM to 10 μM) in the presence of 1% FBS then stimulated for 6 hours with 10 ng/mL of BMP6. Total RNA was isolated from the cells and analyzed for the levels of hepcidin by qRT-PCR. GUSB (glucuronidase, beta) was used as a house keeping control to normalize the levels measured by qRT-PCR. The percentage of hepcidin fold-change induction was calculated (100% is equal to hepcidin induction in vehicle treated cells) and summarized in Table 9.

TGFBR1 = TGFBR1 (Homo sapiens (Human), UniProt P36897); assay: Biochemical binding assay (DiscoveRx)
From the text: Transforming growth factor beta receptor 1 (TGFBR1, ALK5) was used as a control to determine the selectivity to Type-I BMPR-kinases.

[4] = Relative bioavailability of CYT-0387 tablet vs capsule, food and omeprazole effect, healthy subjects; type: in vivo, human; details: from 100 to 800 mg
Experimental: CYT-0387 is a selective small molecule inhibitor of Janus kinase 1 and 2 (JAK1/JAK2), and is currently under investigation to treat myelofibrosis. In a Phase 1/2 study in myelofibrosis patients, 300 mg CYT-0387 capsule once daily was selected as Phase 3 dose based on a favorable benefit:risk profile. An immediate release tablet formulation (CYT-0387 tablet) was developed for further clinical evaluation. The relative bioavailability of CYT-0387 tablet vs capsule was evaluated in this study to identify Phase 3 dose of CYT-0387 tablet. CYT-0387 tablet (100 to 300 mg) vs capsule (300 mg) pharmacokinetics (PK) after a single dose was evaluated in healthy subjects. CYT-0387 tablet PK at supratherapeutic doses (400 and 800 mg), under fed and fasted conditions, and with an acid reducing agent (i.e., omeprazole) was also evaluated. Intensive PK sampling occurred up to 36 hours postdose. Safety was monitored throughout the study. A parametric analysis of variance (ANOVA) using a mixed-effects model was used to fit to the natural logarithmic transformation of PK parameters (AUC and Cmax). The 90% confidence intervals were constructed for the ratio of geometric means of CYT-0387 tablet PK at 100, 150, 200 and 300 mg vs CYT-0387 capsule 300 mg, using equivalence bounds of 70% to 143% for AUC and Cmax. A similar approach was used to assess the effect of food and omeprazole.

Sequence of TGFBR1 (P36897 34-503): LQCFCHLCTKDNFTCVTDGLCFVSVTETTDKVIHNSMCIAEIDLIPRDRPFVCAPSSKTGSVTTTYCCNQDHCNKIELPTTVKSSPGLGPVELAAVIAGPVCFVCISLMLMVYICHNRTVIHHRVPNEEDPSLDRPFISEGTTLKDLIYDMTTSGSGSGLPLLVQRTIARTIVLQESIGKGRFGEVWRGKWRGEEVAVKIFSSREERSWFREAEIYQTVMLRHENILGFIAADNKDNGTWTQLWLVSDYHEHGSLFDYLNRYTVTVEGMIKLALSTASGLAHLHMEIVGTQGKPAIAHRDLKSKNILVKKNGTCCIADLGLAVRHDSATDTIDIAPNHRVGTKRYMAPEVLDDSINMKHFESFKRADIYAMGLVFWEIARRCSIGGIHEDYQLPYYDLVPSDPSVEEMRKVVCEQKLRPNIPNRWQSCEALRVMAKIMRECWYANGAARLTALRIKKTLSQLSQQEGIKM

SMILES: N#CCNC(=O)c1ccc(-c2ccnc(Nc3ccc(N4CCOCC4)cc3)n2)cc1 [CYT-0387 Form II, N-(cyanomethyl)-4-(2-(4-morpholinophenylamino)pyrimidin-4-yl)benzamide dihydrochloride monohydrate Form II]
- Total Degradation ([1]; propyl gallate 0%, month 0): 0.10%
- Total Degradation ([1]; propyl gallate 0%, month 1): 0.68%
- Total Degradation ([1]; propyl gallate 0%, month 3): 1.01%
- Total Degradation ([1]; propyl gallate 0%, month 6): 1.28%
- Total Degradation ([1]; propyl gallate 0.2%, month 0): 0.10%
- Total Degradation ([1]; propyl gallate 0.2%, month 1): 0.34%
- Total Degradation ([1]; propyl gallate 0.2%, month 3): 0.67%
- Total Degradation ([1]; propyl gallate 0.2%, month 6): 0.80%
- Total Degradation ([1]; propyl gallate 0.5%, month 0): 0.11%
- Total Degradation ([1]; propyl gallate 0.5%, month 1): 0.39%
- Total Degradation ([1]; propyl gallate 0.5%, month 3): 0.67%
- Total Degradation ([1]; propyl gallate 0.5%, month 6): 0.95%
- Total Degradation ([1]; propyl gallate 1.0%, month 0): 0.14%
- Total Degradation ([1]; propyl gallate 1.0%, month 1): 0.44%
- Total Degradation ([1]; propyl gallate 1.0%, month 3): 0.87%
- Total Degradation ([1]; propyl gallate 1.0%, month 6): 1.34%
- degradation in 100 mg tablet ([1]; 25° C./60% RH, propyl gallate at 0.2%, 0.5%, and 1.0% (data not shown)): reduced
- main oxidative degradation products ([2]; 0.1% ascorbic acid, 60° C. (data not shown)): not observed
- amount degraded ([2]; in the presence of 0.1% (w/v) propyl gallate or BHA, 60° C., up to 7 days): Less than one percent
- Total Degradation ([2]; pH 4 aqueous buffer, 60° C., control, no antioxidant, day 0): 0.29%
- Total Degradation ([2]; pH 4 aqueous buffer, 60° C., control, no antioxidant, day 5): 17.24%
- Total Degradation ([2]; pH 4 aqueous buffer, 60° C., control, no antioxidant, day 7): 21.84%
- Total Degradation ([2]; pH 4 buffer, 60° C., BHA 0.001% w/v, day 0): 0.30%
- Total Degradation ([2]; pH 4 buffer, 60° C., BHA 0.001% w/v, day 5): 7.64%
- Total Degradation ([2]; pH 4 buffer, 60° C., BHA 0.001% w/v, day 7): 13.76%
- Total Degradation ([2]; pH 4 buffer, 60° C., BHA 0.01% w/v, day 0): 0.55%
- Total Degradation ([2]; pH 4 buffer, 60° C., BHA 0.01% w/v, day 5): 1.75%
- Total Degradation ([2]; pH 4 buffer, 60° C., BHA 0.01% w/v, day 7): 3.04%
- Total Degradation ([2]; pH 4 buffer, 60° C., BHA 0.1% w/v, day 0): 0.45%
- Total Degradation ([2]; pH 4 buffer, 60° C., BHA 0.1% w/v, day 5): 0.50%
- Total Degradation ([2]; pH 4 buffer, 60° C., BHA 0.1% w/v, day 7): 1.24%
- Total Degradation ([2]; pH 4 buffer, 60° C., BHT 0.1% w/v, day 0): 0.06%
- Total Degradation ([2]; pH 4 buffer, 60° C., BHT 0.1% w/v, day 5): 1.71%
- Total Degradation ([2]; pH 4 buffer, 60° C., BHT 0.1% w/v, day 7): 4.35%
- Total Degradation ([2]; pH 4 buffer, 60° C., ascorbic acid 0.001% w/v, day 0): 0.51%
- Total Degradation ([2]; pH 4 buffer, 60° C., ascorbic acid 0.001% w/v, day 5): 17.95%
- Total Degradation ([2]; pH 4 buffer, 60° C., ascorbic acid 0.001% w/v, day 7): 21.28%
- Total Degradation ([2]; pH 4 buffer, 60° C., ascorbic acid 0.01% w/v, day 0): 0.20%
- Total Degradation ([2]; pH 4 buffer, 60° C., ascorbic acid 0.01% w/v, day 5): 1.58%
- Total Degradation ([2]; pH 4 buffer, 60° C., ascorbic acid 0.01% w/v, day 7): 1.78%
- Total Degradation ([2]; pH 4 buffer, 60° C., propyl gallate 0.001% w/v, day 0): 0.22%
- Total Degradation ([2]; pH 4 buffer, 60° C., propyl gallate 0.001% w/v, day 5): 1.98%
- Total Degradation ([2]; pH 4 buffer, 60° C., propyl gallate 0.001% w/v, day 7): 4.32%
- Total Degradation ([2]; pH 4 buffer, 60° C., propyl gallate 0.01% w/v, day 0): 0.22%
- Total Degradation ([2]; pH 4 buffer, 60° C., propyl gallate 0.01% w/v, day 5): 0.38%
- Total Degradation ([2]; pH 4 buffer, 60° C., propyl gallate 0.01% w/v, day 7): 0.72%
- Total Degradation ([2]; pH 4 buffer, 60° C., propyl gallate 0.1% w/v, day 0): 0.29%
- Total Degradation ([2]; pH 4 buffer, 60° C., propyl gallate 0.1% w/v, day 5): 0.31%
- Total Degradation ([2]; pH 4 buffer, 60° C., propyl gallate 0.1% w/v, day 7): 0.32%
- Total Degradation ([2]; pH 4 buffer, 60° C., sodium metabisulfite 0.1% w/v, day 0): 0.33%
- Total Degradation ([2]; pH 4 buffer, 60° C., sodium metabisulfite 0.1% w/v, day 5): 43.83%
- Total Degradation ([2]; pH 4 buffer, 60° C., sodium metabisulfite 0.1% w/v, day 7): 46.31%

SMILES: N#CCNC(=O)c1ccc(-c2ccnc(Nc3ccc(N4CCOCC4)cc3)n2)cc1 [CYT-0387, N-(cyanomethyl)-4-(2-(4-morpholinophenylamino)pyrimidin-4-yl)benzamide]
- effect on BMP6-mediated hepcidin induction ([3]; 0 μM to 10 μM, HepG2): dose-dependent inhibition
- hepcidin fold-change induction (normalized percentage) ([3]; 0.020 μM): 115%
- hepcidin fold-change induction (normalized percentage) ([3]; 0.039 μM): 91%
- hepcidin fold-change induction (normalized percentage) ([3]; 0.078 μM): 74%
- hepcidin fold-change induction (normalized percentage) ([3]; 0.156 μM): 86%
- hepcidin fold-change induction (normalized percentage) ([3]; 0.313 μM): 89%
- hepcidin fold-change induction (normalized percentage) ([3]; 0.625 μM): 45%
- hepcidin fold-change induction (normalized percentage) ([3]; 1.25 μM): 28%
- hepcidin fold-change induction (normalized percentage) ([3]; 2.5 μM): 6%
- hepcidin fold-change induction (normalized percentage) ([3]; 5.0 μM): −4%
- hepcidin fold-change induction (normalized percentage) ([3]; 10.0 μM): −3%
- Kd (TGFBR1): 670 nM
- dose proportionality of plasma exposures [4]: less-than-dose-proportionally
